Experimental data reported in US8603966B2, “Amino acid-based compounds, their methods of use, and methods of screening” (The Administrators of the Tulane Educational Fund, priority 2009, dated 2013).
No end group written: not given here.

Assays:
[1] = High throughput screen: Tb3+/DPA leakage from liposomes; conditions: labeled peptide:lipid 1:300; % of Tb3+ released after 60 minutes vs Triton-X 100 solubilized control (100% leakage)
Procedure: (§1) High throughput screening: For high throughput screening, 100 mM lipid bilayer vesicles were prepared by extrusion in the presence of 50 mM Tb^3+/citrate and 10 mg/mL chymotrypsin. The external Tb^3+/citrate and chymotrypsin were removed by gel filtration. To make the screening solution, 50 μM dipicolinic acid (DPA) and 1 μM α 1-antitrypsin were added to the external medium. The lipid composition was about 90% palmitoyloleoylphostadidylcholine (POPC) and about 10% palmitoyloleoyl phostadidylglycerol (POPG).
(§2) The combinatorial labeled peptide library was screened to identify and measure properties of translocation and leakage (e.g., pore-formation). Beads from the synthesis were exposed to longwave UV to cleave the peptide from the resin. The reaction added an amine group to the labeled peptide at the site of cleavage, yielding a Gln residue. Beads were then separated into individual wells of a multiwell plate and the peptides were extracted into 5 μl of dry dimethylsulfoxide overnight. This cleaved approximately 0.75 nmol of labeled peptide from each bead, about half of the total labeled peptide on the bead. A chymotrypsin cleavage site was incorporated into the labeled peptides' design (FIG. 1) and when hydrolysis occurs the AMC fluorophore is released. The spectra of the free AMC fluorophore is red-shifted as compared to that of the peptide-AMC conjugate (FIG. 2). When a labeled peptide translocates, the chymotrypsin inside the vesicle catalyzes the hydrolysis of the peptide bond contributed by the AMC moiety (FIG. 3B). Translocation was monitored by the rate of accumulation of free AMC. In the case of leakage, interaction of the lanthanide metal terbium III (Tb^3+) with the aromatic chelator dipiccolinic acid (DPA) creates a complex that is fluorescent at low μM concentrations (FIG. 3A). By entrapping Tb^3+ and chymotrypsin inside the liposomes and then adding dipiccolinic acid and a chymotrypsin inhibitor to the external medium, a visual reporter system for translocation with and without membrane leakage was created that can detect as little as 5 pmol of labeled peptide.
(§3) To screen for solubility, the labeled peptide DMSO solution was diluted and incubated for 30 minutes before adding the screening solution. Free-AMC fluorescence was monitored at 450 nm emission (350 nm excitation) for 30 minutes and then the wells were read at 460 nm emission (280 nm excitation) for Tb^3+/DPA complex formation. Wells with the highest free AMC accumulation and/or Tb^3+/DPA fluorescence were sent to the Michigan State University Protein Core Facility for sequencing.
(§4) The screen was performed at a labeled peptide to lipid ratio of 1:300. […] In FIG. 4, the oval labeled “Leakage” indicates labeled peptides that show mostly leakage with a minimum of the relative rate of free AMC production. The oval labeled “Translocation” indicates labeled peptides that show a higher relative rate of free AMC production with a minimum of leakage. Roughly 24,000 beads were screened at 1:300 labeled peptide:lipid, a sequence coverage space of 90%. The labeled peptides indicating the highest translocation and highest % leakage were identified by Edman sequencing from the beads.
(§5) Free-AMC fluorescence was monitored at 450 nm emission (350 nm excitation) for 30 minutes and then the wells were read at 460 nm emission (280 nm excitation) for Tb^3+/DPA complex formation. Percent leakage is the % of Tb^3+ released from lipid vesicles after 60 minutes, compared to a Triton-X 100 detergent-solubilized control (100% leakage). […] Free AMC was determined in real time by monitoring the fluorescence of free AMC after vesicle addition using a BioTek Synergy II fluorescence plate reader. The two assays were performed on the same samples.

[2] = High throughput screen: translocation into liposomes (free AMC production by entrapped chymotrypsin); conditions: labeled peptide:lipid 1:300; rate divided by rate in chymotrypsin solution without inhibitor and liposomes
Procedure: as §1, §2, §3, §4, §5

[3] = tested on: Chinese Hamster Ovary (CHO) cells; assay: Cell penetration by laser scanning confocal fluorescence microscopy; format: cell-based; conditions: for Cell Penetrating Half-time: SD ±10 min
Procedure: (§6) Laser Scanning Confocal Fluorescence Microscopy: Some translocating peptides were synthesized and labeled with the fluorescent dye TAMRA on either their amino terminus (N-labeled) or on a C-terminal cysteine residue (C-labeled). Live Chinese Hamster Ovary (CHO) cells were used to assess the ability of the labeled peptides to translocate across living cell membrane into the cells without causing toxicity.
CHO cells were incubated with peptide that was labeled on a C-terminal cysteine residue with the red fluorescent dye TAMRA. Cells and labeled peptide were incubated for 10 minutes in minimal media at 37° C. Cells were then washed to remove labeled peptide from the solution. The minimal media was replaced and 1 μM NBD (7-nitrobenz-2-oxa-1,3-diazol-4-yl) labeled lyso-phosphatidylthanolamine was added to the cells to label the plasma membrane. Labeled peptide concentrations for the panels are: A) 0 μM, B) 2 μM, C) 5 μM, and D) 10 μM. The scale bar represents 50 μm.
Panels A-G of FIG. 6 show representative CFM images monitoring the translocation of a labeled peptide with SEQ ID NO. 04 (synthesized with all D-amino acids for the chiral amino acids) in 10 minute intervals. CHO cells were incubated with the TAMRA-labeled peptide in minimal media and monitored over time at 25° C. without washing. The incubation times for the panels are: A) 5 min., B) 15 min., C) 25 min., D) 35 min., E) 45 min., F) 55 min., and G) 65 min. […] The scale bar represents 50 μm.
(§7) In this experiment, the externally added labeled peptide has not been washed away so the solution itself is fluorescent due to added TAMRA-labeled peptide. The black silhouettes in Panel A show the location of cells; before labeled-peptide entry, there is no fluorescence inside the cells.
All labeled peptides tested are able to translocate across living cell membranes and carry the large polar dye molecule TAMRA with them into the cell. Cell penetration was assessed by measuring TAMRA intensity inside CHO cells during incubation with the peptides in Table 4 and comparing intensity inside the cells with the external solution. Incubations were done at either 25° C. or 37° C., at concentrations listed. The half-times for penetration were determined, as shown in Table 5; the half-times have standard deviations of ±10 min. Based on final intensities inside the cells, all labeled peptides tested have similar cell penetrating activity at concentrations tested and at the temperatures tested. Toxicity was determined using the same conditions (e.g., solution and temperature) and concentrations as the cell penetration experiments. Toxicity was assessed by imaging at least 100 cells and counting cells with altered cell morphology, loss of confluence, or loss of adherence to substrate. In some experiments, the non-membrane permeable DNA dye SYTOX green was used to assess membrane integrity. In most cases, no measurable increase in toxicity or membrane integrity over control samples was detectable; this is indicated by the <5% in Table 5.

[4] = tested on: Chinese Hamster Ovary (CHO) cells; format: cell-based
Text: as §6, §7
All labeled peptides tested are able to translocate across living cell membranes and carry the large polar dye molecule TAMRA with them into the cell. Cell penetration was assessed by measuring TAMRA intensity inside CHO cells during incubation with the peptides in Table 4 and comparing intensity inside the cells with the external solution. Incubations were done at either 25° C. or 37° C., at concentrations listed. The half-times for penetration were determined, as shown in Table 5; the half-times have standard deviations of ±10 min. […] Toxicity was determined using the same conditions (e.g., solution and temperature) and concentrations as the cell penetration experiments. […]

Substance | % Leakage [1] | Relative Rate of Free AMC Production [2] | other results
RLIYLRLLRGQF [SEQ ID NO: 01] | 24% | 3.4 | –
Pro-Leu-Ile-Tyr-Leu-Arg-Leu-Leu-Arg-Gly-Gln-Phe | – | – | half-time for cell entry ([3]; FIG. 6, 25° C., minimal media, without washing): 20 to 30 min; time at which cell penetration occurs ([3]; FIG. 6, 25° C., without washing): within a few minutes; toxicity (shape and coherence of the cells) [4]: toxicity is minimal
RKRLLQLLLGQF [SEQ ID NO: 21] | 84% | 0.7 | –
PLGYLFLLRGQF [SEQ ID NO: 05] | 6.0% | 1.9 | –
Pro-Leu-Ile-Leu-Leu-Arg-Leu-Leu-Arg-Gly-Gln-Phe (PLILLRLLRGQF; not fully specified (C-terminus); printed as Pro-Leu-Ile-Leu-Leu-Arg-Leu-Leu-Arg-Gly-Gln-Phe) [SEQ ID NO: 03 (C-labeled), peptide labeled with the dye TAMRA on a C-terminal cysteine] | – | – | Cell Penetrating Half-time ([3]; 37° C., 1.7-5 μM): <30 min
RKGLLQLLLGQF [SEQ ID NO: 18] | 92% | 0.3 | –
PRILLRLLLGQF [SEQ ID NO: 16] | 89% | 1.0 | –
RLIRLFLLRGQF [SEQ ID NO: 08] | 5.0% | 2.1 | –
PLILLRLLRGQF [SEQ ID NO: 03] | 1.7% | 2.1 | –
RLILRQLLLGQF [SEQ ID NO: 19] | 102% | 1.6 | –
PRIYLRLLLGQF [SEQ ID NO: 14] | 82% | 1.1 | –
RKILLRLLRGQF [SEQ ID NO: 02] | −3.0% | 1.6 | –
PLRLRFLLRGQF [SEQ ID NO: 07] | −4.5% | 1.6 | –
Pro-Leu-Ile-Tyr-Leu-Arg-Leu-Leu-Arg-Gly-Gln-Phe [SEQ ID NO: 04] | 2.8% | 2.3 | –
RLILLFRRLGQF [SEQ ID NO: 06] | 7.2% | 2.1 | –
PLIYPFLRLGQF [SEQ ID NO: 09] | −0.2% | 1.7 | –
Arg-Arg-Ile-Leu-Leu-Gln-Leu-Leu-Arg-Gly-Gln-Phe (RRILLQLLRGQF; not fully specified (C-terminus); printed as Arg-Arg-Ile-Leu-Leu-Gln-Leu-Leu-Arg-Gly-Gln-Phe) [SEQ ID NO: 10 (C-labeled), peptide labeled with the dye TAMRA on a C-terminal cysteine] | – | – | Cell Penetrating Half-time ([3]; 25° C., 1.7-10 μM): 15 min
RRILLQLLRGQF [SEQ ID NO: 10] | 26% | 2.3 | –
PKILLFKLLGQF [SEQ ID NO: 12] | 1.6% | 1.7 | –
Arg-Arg-Ile-Leu-Leu-Gln-Leu-Leu-Leu-Gly-Gln-Phe (RRILLQLLLGQF; not fully specified (C-terminus); printed as Arg-Arg-Ile-Leu-Leu-Gln-Leu-Leu-Leu-Gly-Gln-Phe) [SEQ ID NO: 15 (C-labeled), peptide labeled with the dye TAMRA on a C-terminal cysteine] | – | – | Cell Penetrating Half-time ([3]; 37° C., 1.7-5 μM): <30 min
RRILLQLLLGQF [SEQ ID NO: 15] | 105% | 0.0 | –
PKQLLRLLLGQF [SEQ ID NO: 20] | 90% | 0.4 | –
PLRLLRLLRGQF [SEQ ID NO: 11] | 5.2% | 2.0 | –
RLILRQLLRGQF [SEQ ID NO: 17] | 115% | 1.6 | –
Arg-Lys-Gly-Leu-Leu-Gln-Leu-Leu-Leu-Gly-Gln-Phe (RKGLLQLLLGQF; not fully specified (C-terminus); printed as Arg-Lys-Gly-Leu-Leu-Gln-Leu-Leu-Leu-Gly-Gln-Phe) [SEQ ID NO: 18 (C- labeled), peptide labeled with the dye TAMRA on a C-terminal cysteine] | – | – | Cell Penetrating Half-time ([3]; 37° C., 1.7-5 μM): <30 min
Pro-Leu-Ile-Tyr-Leu-Arg-Leu-Leu-Arg-Gly-Gln-Phe [SEQ ID NO: 04 (C-labeled)] | – | – | Cell Penetrating Half-time ([3]; 37° C., 1.7-10 μM): 20 min
PRKLLQLLLGQF [SEQ ID NO: 13] | 86% | 0.6 | –
